From US20110038885A1, “CHEMOKINE ANALOGS” (priority 2007, published 2011)
Bridge positions count the residues as written; N and C are the ends. Square brackets hold non-standard residues; d marks the D form. Peptide text beside a SMILES is read from it. * marks the point of attachment. Lauroyl = CCCCCCCCCCCC(=O)*; Ac6c = NC1(C(=O)O)CCCCC1; Octanoyl = CCCCCCCC(=O)*; Dap = NC[C@H](N)C(=O)O; Aoc = NCCCCCCCC(=O)O; GABA = NCCCC(=O)O

Experiments:
IL-8 = test: In vitro chemotaxis, inhibition v IL-8; assay type: cell-based, human; design: concentration or dose not given beside the values
Experimental: To determine whether an agent inhibits a chemokine-induced activity, such as macrophage recruitment, varying amounts of the agent are mixed with cells in the presence of a known chemoattractant. For example, a range of known concentrations of an agent, e.g., a chemokine peptide, is incubated with a defined number (e.g., 10^4-10^6) of human THP-1 monocyte cells in individual wells of the top compartment of a trans-well plate. Chemokine, at a concentration known to cause significant migration of THP-1 cells in the trans-well migration assay, is placed in the lower compartment of a trans-well plate. Cells are then incubated at 37° C. for a period sufficient to allow migration, e.g., 4 hours. After incubation, the cells are gently removed from the top of the filter with a pipette, 20 μl of 20 mM EDTA in simple PBS is added into each top well, and incubated for 20 minutes at 4° C. The filter is carefully flushed with media using a gentle flow, and removed. A standard curve consisting of a two-fold dilution series of THP-1 cells (in 29 μl) is placed to accurately quantify the number of cells that have migrated. Migrated cells are stained with 3 μl of MTT stock dye solution which is added directly into each well (5 mg/ml in RPMI-1640 without phenol red) (Sigma Chemical Co., St. Louis, Mo., USA) and incubated at 37° C. for 4 hours. The media is carefully aspirated from each well, and the converted dye is solubilized by 20 μl of DMSO. Absorbance of converted dye is measured at a wavelength of 595 nm using an ELISA plate reader. The number of migrated cells in each well is then determined by interpolation of the standard curve (see also Imai et al., J. Biol. Chem., 272:15036, 1997). Any method suitable for counting cells can be used, for example, counting with a hemocytometer, incubation of the cells with MTT (see above), or FACS analysis. A negative control assay is also performed, using TGFβ or another non-chemokine chemoattractant (e.g., IL1β or TNFα). To assess whether the agent is cytotoxic, the same concentrations of agent are incubated with THP-1 cells. Agents which 1) are not cytotoxic at levels which inhibit migration, 2) are ineffective at inhibiting the negative control-induced migration, and 3) reduce or inhibit chemokine-induced THP-1 migration, are agents which fall within the scope of the invention.

MCP-1 = test: In vitro chemotaxis (trans-well migration) v MCP-1; assay type: cell-based, human
Summary of the method: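 Human THP-1 monocytes (10^4-10^6) with agent at varying concentrations in upper trans-well chamber; IL-8 or MCP-1 in lower chamber at a migration-inducing concentration, 37° C for e.g. 4 hours. Migrated cells quantified by MTT (595 nm) against a THP-1 standard curve; cytotoxicity and non-chemokine chemoattractant controls run.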

SMILES	EC50 (MCP-1)	v IL-8 inhibition (%) (IL-8)
CC[C@H](C)[C@@H]1NC(=O)[C@H](Cc2c[nH]c3ccccc23)NC(=O)[C@H](CCCCN)NC(=O)[C@H](CCC(N)=O)NC(=O)[C@H](CCCCN)NC(=O)[C@@H]2CCCN2C(=O)[C@H](CC(=O)O)NC(=O)[C@H](CC(C)C)NC(=O)[C@H](N)CSSC[C@@H](C(=O)N[C@@H](CN)C(N)=O)NC(=O)[C@H](CCC(N)=O)NC1=O [Example 35, c(D-Cys-Leu-Asp-Pro-Lys-Gln-Lys-Trp-Ile-Gln-Cys)-Dap-NH2] (H-[dC]LDPKQKWIQC[Dap]-NH2; disulfide 1-11)	50 nM	91.9%
CC[C@H](C)[C@@H]1NC(=O)[C@H](Cc2c[nH]c3ccccc23)NC(=O)[C@H](CCCCN)NC(=O)[C@H](CCC(N)=O)NC(=O)[C@H](CCCCN)NC(=O)[C@@H]2CCCN2C(=O)[C@H](CC(=O)O)NC(=O)[C@H](CC(C)C)NC(=O)[C@H](N)CSSC[C@H](C(N)=O)NC(=O)[C@H](CCC(N)=O)NC1=O [Example 37, c(D-Cys-Leu-Asp-Pro-Lys-Gln-Lys-Trp-Ile-Gln-D-Cys)-NH2] (H-[dC]LDPKQKWIQ[dC]-NH2; disulfide 1-11)	> 1000 nM	−14.7%
CC[C@H](C)[C@@H]1NC(=O)[C@H](Cc2c[nH]c3ccccc23)NC(=O)[C@H](CCCCN)NC(=O)[C@H](CCC(N)=O)NC(=O)[C@@H](CCCCN)NC(=O)[C@@H]2CCCN2C(=O)[C@H](CC(=O)O)NC(=O)[C@H](CC(C)C)NC(=O)[C@@H](NC(C)=O)CSSC[C@@H](C(N)=O)NC(=O)[C@H](CCC(N)=O)NC1=O [Example 29, Ac-c(Cys-Leu-Asp-Pro-D-Lys-Gln-Lys-Trp-Ile-Gln-Cys)-NH2] (Ac-CLDP[dK]QKWIQC-NH2; disulfide 1-11)	30 nM	92.0%
CC(=O)N[C@H]1CSSC[C@@H](C(N)=O)NC(=O)[C@H](CCC(N)=O)NC(=O)[C@H](Cc2c[nH]c3ccccc23)NC(=O)[C@H](CCCCN)NC(=O)[C@H](CCC(N)=O)NC(=O)[C@H](CCCCN)NC(=O)[C@@H]2CCCN2C(=O)[C@H](CC(=O)O)NC(=O)C2(CCCCC2)NC1=O [Example 156, Ac-c(Cys-A6c-Asp-Pro-Lys-Gln-Lys-Trp-Gln-Cys)-NH2] (Ac-C[Ac6c]DPKQKWQC-NH2; disulfide 1-10)	> 1000 nM	3.1%
CCCCCCCC(=O)NCCCC[C@H](NC(=O)[C@@H](CC(=O)O)NC(=O)[C@H]1CSSC[C@@H](N)C(=O)N[C@H](CCC(N)=O)C(=O)N[C@H]([C@H](C)CC)C(=O)N[C@H](Cc2c[nH]c3ccccc23)C(=O)N[C@H](CCCCN)C(=O)N[C@H](CCC(N)=O)C(=O)N[C@H](CCCCN)C(=O)N2CCC[C@@H]2C(=O)N[C@H](CC(=O)O)C(=O)N[C@H](CC(C)C)C(=O)N1)C(=O)O [Example 147, c(D-Cys-D-Gln-D-Ile-D-Trp-D-Lys-D-Gln-D-Lys-D-Pro-D-Asp-D-Leu-D-Cys)-D-Asp-Lys(Nε-octanoyl)-OH] (H-[dC][dQ][dI][dW][dK][dQ][dK][dP][dD][dL][dC][dD]K(Octanoyl)-OH; disulfide 1-11)	500 nM	29.0%
CCCCCCCCCCCC(=O)NCCCC[C@H](N)C(=O)N[C@H](C(=O)N[C@H]1CSSC[C@@H](C(N)=O)NC(=O)[C@H](CCC(N)=O)NC(=O)[C@H]([C@@H](C)CC)NC(=O)[C@H](Cc2c[nH]c3ccccc23)NC(=O)[C@H](CCCCN)NC(=O)[C@H](CCC(N)=O)NC(=O)[C@H](CCCCN)NC(=O)[C@@H]2CCCN2C(=O)[C@H](CC(=O)O)NC(=O)[C@H](CC(C)C)NC1=O)[C@@H](C)CC [Example 169, Lys(Nε-dodecanoyl)-Ile-c(Cys-Leu-Asp-Pro-Lys-Gln-Lys-Trp-Ile-Gln-Cys)-NH2] (H-K(Lauroyl)ICLDPKQKWIQC-NH2; disulfide 3-13)	> 1000 nM	7.7%
CC[C@@H](C)[C@H]1NC(=O)[C@@H](CCC(N)=O)NC(=O)[C@H](N)CSSC[C@H](C(=O)NCCCC(=O)O)NC(=O)[C@@H](CC(C)C)NC(=O)[C@@H](CC(=O)O)NC(=O)[C@H]2CCCN2C(=O)[C@@H](CCCCN)NC(=O)[C@@H](CCC(N)=O)NC(=O)[C@@H](CCCCN)NC(=O)[C@@H](Cc2c[nH]c3ccccc23)NC1=O [Example 142, c(D-Cys-D-Gln-D-Ile-D-Trp-D-Lys-D-Gln-D-Lys-D-Pro-D-Asp-D-Leu-D-Cys)-Gaba-OH] (H-[dC][dQ][dI][dW][dK][dQ][dK][dP][dD][dL][dC][GABA]-OH; disulfide 1-11)	20 nM	107.3%
CC[C@@H](C)[C@H]1NC(=O)[C@@H](CCC(N)=O)NC(=O)[C@H](N)CSSC[C@H](C(=O)N[C@@H](CCC(=O)O)C(=O)NCCCCCCCC(=O)O)NC(=O)[C@@H](CC(C)C)NC(=O)[C@@H](CC(=O)O)NC(=O)[C@H]2CCCN2C(=O)[C@@H](CCCCN)NC(=O)[C@@H](CCC(N)=O)NC(=O)[C@@H](CCCCN)NC(=O)[C@@H](Cc2c[nH]c3ccccc23)NC1=O [Example 145, c(D-Cys-D-Gln-D-Ile-D-Trp-D-Lys-D-Gln-D-Lys-D-Pro-D-Asp-D-Leu-D-Cys)-Glu-Aoc-OH] (H-[dC][dQ][dI][dW][dK][dQ][dK][dP][dD][dL][dC]E[Aoc]-OH; disulfide 1-11)	200 nM	23.8%
CC[C@H](C)[C@@H]1NC(=O)[C@H](Cc2c[nH]c3ccccc23)NC(=O)[C@H](CCCCN)NC(=O)[C@H](CCC(N)=O)NC(=O)[C@H](CCCCN)NC(=O)[C@@H]2CCCN2C(=O)[C@H](CC(=O)O)NC(=O)[C@H](CC(C)C)NC(=O)[C@@H](NC(=O)[C@@H](CC(=O)O)NC(=O)[C@H](N)CCCCN)CSSC[C@@H](C(N)=O)NC(=O)[C@H](CCC(N)=O)NC1=O [Example 167, D-Lys-D-Asp-c(Cys-Leu-Asp-Pro-Lys-Gln-Lys-Trp-Ile-Gln-Cys)-NH2] (H-[dK][dD]CLDPKQKWIQC-NH2; disulfide 3-13)	25 nM	99.6%

Now from value to compound, other results behind:

EC50 (MCP-1)	SMILES	v IL-8 inhibition (%) (IL-8)
20 nM	CC[C@H](C)[C@@H]1NC(=O)[C@@H](Cc2c[nH]c3ccccc23)NC(=O)[C@H](CCCCN)NC(=O)[C@H](CCC(N)=O)NC(=O)[C@H](CCCCN)NC(=O)[C@@H]2CCCN2C(=O)[C@H](CC(=O)O)NC(=O)[C@H](CC(C)C)NC(=O)[C@@H](NC(C)=O)CSSC[C@@H](C(N)=O)NC(=O)[C@H](CCC(N)=O)NC1=O [Example 26, Ac-c(Cys-Leu-Asp-Pro-Lys-Gln-Lys-D-Trp-Ile-Gln-Cys)-NH2] (Ac-CLDPKQK[dW]IQC-NH2; disulfide 1-11)	94.9%
30 nM	CC[C@@H](C)[C@H]1NC(=O)[C@H](Cc2c[nH]c3ccccc23)NC(=O)[C@H](CCCCN)NC(=O)[C@H](CCC(N)=O)NC(=O)[C@H](CCCCN)NC(=O)[C@@H]2CCCN2C(=O)[C@H](CC(=O)O)NC(=O)[C@H](CC(C)C)NC(=O)[C@@H](NC(C)=O)CSSC[C@@H](C(N)=O)NC(=O)[C@H](CCC(N)=O)NC1=O [Example 25, Ac-c(Cys-Leu-Asp-Pro-Lys-Gln-Lys-Trp-D-Ile-Gln-Cys)-NH2] (Ac-CLDPKQKW[dI]QC-NH2; disulfide 1-11)	96.9%
> 1000 nM	CC[C@H](C)[C@@H]1NC(=O)[C@H](Cc2c[nH]c3ccccc23)NC(=O)[C@H](CCCCN)NC(=O)[C@H](CCC(N)=O)NC(=O)[C@H](CCCCN)NC(=O)[C@@H]2CCCN2C(=O)[C@H](CC(=O)O)NC(=O)[C@@H](CC(C)C)NC(=O)[C@@H](NC(C)=O)CSSC[C@@H](C(N)=O)NC(=O)[C@H](CCC(N)=O)NC1=O [Example 32, Ac-c(Cys-D-Leu-Asp-Pro-Lys-Gln-Lys-Trp-Ile-Gln-Cys)-NH2] (Ac-C[dL]DPKQKWIQC-NH2; disulfide 1-11)	8.7%
200 nM	CC[C@H](C)[C@@H]1NC(=O)[C@H](Cc2c[nH]c3ccccc23)NC(=O)[C@H](CCCCN)NC(=O)[C@H](CCC(N)=O)NC(=O)[C@H](CCCCN)NC(=O)[C@@H]2CCCN2C(=O)[C@H](CC(=O)O)NC(=O)[C@H](CC(C)C)NC(=O)[C@@H](NC(C)=O)CSSC[C@@H](C(N)=O)NC(=O)[C@@H](CCC(N)=O)NC1=O [Example 24, Ac-c(Cys-Leu-Asp-Pro-Lys-Gln-Lys-Trp-Ile-D-Gln-Cys)-NH2] (Ac-CLDPKQKWI[dQ]C-NH2; disulfide 1-11)	33.8%
